US20240381872A1, “SUBSTITUTED 2,3-DIHYDRO[1,3]THIAZOLO[4,5-B]PYRIDINES, SALTS THEREOF AND THEIR USE AS HERBICIDALLY ACTIVE SUBSTANCES” (BAYER AKTIENGESELLSCHAFT, priority 2021, published 2024)

Experiments:
Assay type in all cases: in vivo
[1] = tested on: Digitaria sanguinalis (DIGSA); assay: Herbicidal pre-emergence action, section C (Table C12); conditions: visual grading after ca. 3 weeks; for pre-emergence activity against DIGSA in % / pest or weed control at 320 g/ha: application rate 320 g/ha
How it was run: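 Pre-emergence greenhouse test: visual percent damage scored about 3 weeks after treatment, relative to untreated pots (100% = dead, 0% = no effect). Formulated compounds (WP or EC, plus 0.5% additive) were applied in 600 l water/ha to the covering soil over seeds sown in sandy loam.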

Lolium rigidum (LOLRI) = assay: Herbicidal pre-emergence action, section A (Table A5); conditions: visual grading after ca. 3 weeks vs untreated controls
How it was run: (§1)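 Sandy loam pots, seeds covered with soil, treated on the soil surface with aqueous WP or EC preparations containing 0.5% additive (600 l/ha). Visual damage rating after ca. 3 weeks in greenhouse; scale 0% (as control) to 100% (plants died off).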

Stellaria media (STEME) = assay: Herbicidal pre-emergence action, section A (Table A9)
How it was run: as §1

Setaria viridis (SETVI) = assay: Herbicidal post-emergence action, section B (Table B8); conditions: application rate 1280 g/ha, visual rating about 3 weeks after treatment vs untreated controls; for pest or weed control at 1280 g/ha: Setaria viridis, post-emergence, 504 h, read-out: post-emergence activity against SETVI in %
How it was run: (§2)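 Under optimum greenhouse conditions, sandy-loam-grown weeds at the one-leaf stage are sprayed with aqueous suspension or emulsion carrying 0.5% additive, 600 liters per hectare. About 3 weeks later, visual percent activity is scored relative to untreated controls.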

[2] = tested on: Polygonum convolvulus (POLCO); assay: Herbicidal post-emergence action, section E (Table E7); conditions: application rate 320 g/ha, visual assessment ca. 3 weeks after spraying
Excerpt: Seeds of mono- and dicotyledonous weed plants and crop plants were sown, in plastic or organic planting pots, in sandy loam, covered with soil and grown in a greenhouse under controlled growth conditions. 2 to 3 weeks after sowing, the test plants were sprayed in the single-leaf stage. The compounds according to the invention, formulated in form of wettable powders (WP) or as emulsifiable concentrates (EC), were sprayed onto the green plant parts as aqueous suspension or emulsion, with the addition of 0.5% of an additive, at an application rate of 600 l of water/ha (converted). The test plants were placed in the greenhouse for ca. 3 weeks under optimum growth conditions, and then the effect of the preparations was assessed visually in comparison with untreated controls (herbicidal effect in percent (%): 100% effect=plants have died off, 0% effect=as control plants).

[3] = tested on: Echinochloa crus-galli (ECHCG); assay: Herbicidal post-emergence action, section B (Table B3); conditions: rated visually after about 3 weeks
How it was run: as §2

Veronica persica (VERPE) = assay: Herbicidal pre-emergence action, section C (Table C10); conditions: visual grading after ca. 3 weeks
Excerpt: Seeds of mono- and dicotyledonous weed plants and crop plants were sown, in plastic or organic planting pots, in sandy loam and covered with soil. The compounds according to the invention, formulated in the form of wettable powders (WP) or as emulsifiable concentrates (EC), were applied to the surface of the covering soil as aqueous suspension or emulsion, with the addition of 0.5% of an additive, at an application rate of 600 l of water/ha (converted). Following treatment, the pots were placed in a greenhouse and kept under optimum growth conditions for the test plants. The visual grading of the damage to the test plants was carried out after ca. 3 weeks in comparison to untreated controls (herbicidal effect in percent (%): 100% effect=plants have died off, 0% effect=as control plants).

Glycine max (GLXMA) = assay: Pre-emergence effects on crop plants, section D (Table D4); conditions: application rate 320 g/ha; visual grading after ca. 3 weeks
How it was run: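 After sowing in sandy loam and covering with soil, pots receive compound applied to the soil surface at rates up to 320 g/ha in 600 l water/ha containing 0.5% additive. Plants then grow under optimum greenhouse conditions. Percent herbicidal effect is rated visually at roughly 3 weeks against untreated pots.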

[4] = tested on: Triticum aestivum (TRZAS); assay: Post-emergence effects on crop plants, section F (Table F2); conditions: for post-emergence activity against TRZAS in %: crop plant damage
How it was run: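 Percent damage was rated by eye roughly 3 weeks after treatment against untreated plants, where 0% = as control and 100% = died off. Spraying used WP or EC formulations plus 0.5% additive at 600 l water/ha, with rates of 320 g/ha or less. Plants were at the single-leaf stage, sown 2-3 weeks earlier in sandy loam under greenhouse conditions.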

[5] = Digitaria sanguinalis, pre-emergence, 504 h, read-out: pre-emergence activity against DIGSA in %
[6] = Stellaria media, 504 h, application rate 320 g/ha, read-out: pre-emergence activity against STEME in %
[7] = Lolium rigidum, pre-emergence, 504 h, application rate 1280 g/ha, read-out: pre-emergence activity against LOLRI in %
[8] = Triticum aestivum, 504 h, application rate 320 g/ha, read-out: post-emergence activity against TRZAS in %
[9] = Echinochloa crus-galli, 504 h, application rate 1280 g/ha, read-out: post-emergence activity against ECHCG in %
[10] = Veronica persica, pre-emergence, 504 h, application rate 320 g/ha, read-out: pre-emergence activity against VERPE in %

Structure (SMILES)	pre-emergence activity against DIGSA in % [1] [%]	post-emergence activity against SETVI in % (Setaria viridis (SETVI)) [%]	post-emergence activity against POLCO in % [2] [%]	pre-emergence activity against GLXMA in % (crop plant damage) (Glycine max (GLXMA)) [%]	pest or weed control at 320 g/ha [1, 5] [%]	pest or weed control at 320 g/ha (Stellaria media (STEME); [6]) [%]	pest or weed control at 1280 g/ha (Setaria viridis (SETVI)) [%]	pest or weed control at 1280 g/ha (Lolium rigidum (LOLRI); [7]) [%]	percent crop plant damage (wheat, post-emergence) at 320 g/ha [4, 8] [%]	other results
Cc1cc2c(nc1-c1ccccc1F)N(C(=O)C1(C)CC(Cl)=NO1)CS2 (stereo not drawn) [Example I-083]	100	90	90							pre-emergence activity against LOLRI in % (Lolium rigidum (LOLRI); application rate 320 g/ha): 100%; pre-emergence activity against STEME in % (Stellaria media (STEME); application rate 320 g/ha): 90%; post-emergence activity against ECHCG in % ([3]; application rate 1280 g/ha): 90%; pre-emergence activity against VERPE in % (Veronica persica (VERPE); application rate 80 g/ha): 80%
Cc1cc2c(nc1-c1cccc(C)c1F)NCS2 [Example I-113]	100			10						pre-emergence activity against LOLRI in % (Lolium rigidum (LOLRI); application rate 1280 g/ha): 100%; pre-emergence activity against STEME in % (Stellaria media (STEME); application rate 1280 g/ha): 90%; post-emergence activity against TRZAS in % ([4]; application rate 320 g/ha): 20%
CCS(=O)(=O)N1C[S+]([O-])c2cc(C)c(-c3ccccc3C)nc21 (stereo not drawn) [Example I-074]				0	100	90	90			pest or weed control at 320 g/ha (Lolium rigidum (LOLRI); Lolium rigidum, pre-emergence, 504 h, application rate 320 g/ha, read-out: pre-emergence activity against LOLRI in %): 100%; percent crop plant damage (wheat, post-emergence) at 80 g/ha ([4]; Triticum aestivum, 504 h, application rate 80 g/ha, read-out: post-emergence activity against TRZAS in %): 0%; pest or weed control at 80 g/ha (Veronica persica (VERPE); Veronica persica, pre-emergence, 504 h, application rate 80 g/ha, read-out: pre-emergence activity against VERPE in %): 80%
CC1(C(=O)N2CSc3cc(Br)c(-c4ccccc4)nc32)CC(Cl)=NO1 (stereo not drawn) [Example I-139]	100	90	90							pre-emergence activity against LOLRI in % (Lolium rigidum (LOLRI); application rate 1280 g/ha): 100%; pre-emergence activity against STEME in % (Stellaria media (STEME); application rate 320 g/ha): 90%; post-emergence activity against TRZAS in % ([4]; application rate 80 g/ha): 0%; post-emergence activity against ECHCG in % ([3]; application rate 1280 g/ha): 90%; pre-emergence activity against VERPE in % (Veronica persica (VERPE); application rate 320 g/ha): 80%
Cc1cc2c(nc1-c1ccccc1)N(C(=O)C1(C)CC(Cl)=NO1)CS2 (stereo not drawn) [Example I-088]	100	90	90							pre-emergence activity against LOLRI in % (Lolium rigidum (LOLRI); application rate 320 g/ha): 100%; pre-emergence activity against STEME in % (Stellaria media (STEME); application rate 1280 g/ha): 90%; post-emergence activity against TRZAS in % ([4]; application rate 320 g/ha): 20%; post-emergence activity against ECHCG in % ([3]; application rate 320 g/ha): 90%
CC(=O)N1CSc2cc(Br)c(-c3ccccc3Cl)nc21 [Example I-055, 1-[6-bromo-5-(2-chlorophenyl)[1,3]thiazolo[4,5-b]pyridin-3(2H)-yl]ethanone]				20		90	90	100	0	pest or weed control at 80 g/ha ([1]; Digitaria sanguinalis, pre-emergence, 504 h, application rate 80 g/ha, read-out: pre-emergence activity against DIGSA in %): 90%; pest or weed control at 1280 g/ha [3, 9]: 90%; pest or weed control at 320 g/ha (Veronica persica (VERPE); [10]): 80%
Clc1ccccc1-c1nc2c(cc1Br)SCN2 [Example I-041, 6-bromo-5-(2-chlorophenyl)-2,3-dihydro[1,3]thiazolo[4,5-b]pyridine]					100		90	100	0	pest or weed control at 1280 g/ha (Stellaria media (STEME); Stellaria media, 504 h, application rate 1280 g/ha, read-out: pre-emergence activity against STEME in %): 100%; pest or weed control at 320 g/ha ([3]; Echinochloa crus-galli, 504 h, application rate 320 g/ha, read-out: post-emergence activity against ECHCG in %): 100%
CC1(C(=O)N2CSc3cc(Br)c(-c4ccccc4Cl)nc32)CC(Cl)=NO1 (stereo not drawn) [Example I-141, [6-bromo-5-(2-chlorophenyl)[1,3]thiazolo[4,5-b]pyridin-3(2H)-yl](3-chloro-5-methyl-4,5-dihydro-1,2-oxazol-5-yl)methanone]					90	90		100	0	pest or weed control at 1280 g/ha [3, 9]: 90%; pest or weed control at 320 g/ha (Veronica persica (VERPE); [10]): 90%
